Data on five compounds can be found in patent US7776572B2, “Method for reducing loss of enzyme activity during storage” (Corning Incorporated, priority 1996, dated 2010).

Read-outs that look alike come from different tables or passages of the source. Where only a bound is given, the exact number is not on record here.

The subject of data set [1] is ^125I-IgG (goat anti-mouse). The data set is described as follows: Radiometric determination of IgG binding to surfactant-coated polystyrene microtiter wells. The following applies: for Total IgG binding, Non-Sterilized: coated polystyrene wells; for Total IgG binding, Non-Sterilized / Tight IgG binding, Non-Sterilized: not sterilized; for Total IgG binding, Non-Sterilized / Total IgG binding, Sterilized: after three PBS washes; for Total IgG binding, Sterilized / Tight IgG binding, Sterilized: gamma sterilized (1.5 Mrad); for Tight IgG binding, Sterilized / Tight IgG binding, Non-Sterilized: after two hours in PBS-Tween (0.05%). As to the method: The hydrophobic surfaces used were flat bottom microtiter plates composed of high binding polystyrene (Corning Costar No. 2581) and medium binding polystyrene (Corning Costar No. 2587). Testing was performed with and without gamma radiation sterilization using cobalt 60 (1.5 Mrad).
The surfactants were applied to the test plates as described in Materials and Methods, followed by sterilization where indicated.
Levels of protein binding were determined using a radiolabeled protein, namely, ^125I-IgG (goat anti-mouse) purchased from DuPont/NEN. Unlabeled IgG in sodium carbonate buffer pH 9.2 was spiked with ^125I-IgG so that the final concentration of labeled IgG and cold IgG in the test solution was 10 μg/mL.
Aliquots of 0.1 milliliters of the protein solution were placed in quadruplicate in the wells of 8-well strips removed from the test microtiter plates. The wells were incubated overnight at 4° C. with shaking. The supernatants were removed from the wells, followed by three washes with 0.2 mL of PBS. The wells were then dried and individually counted to determine “total” IgG binding. After determining “total” binding, the wells were incubated for two hours in 0.2 mL of PBS-Tween (0.05%) at room temperature with shaking. The supernatants were removed from the wells followed by three washes with 0.2 mL of PBS. The wells were dried and individually counted to determine “tight” IgG binding.
Untreated high binding and medium binding plates were used as controls. A comparative experiment was also performed in which a BSA protein coating was used in place of a surfactant coating. The BSA was preabsorbed onto the walls of the wells and then washed to remove excess material. Testing was then performed using the radiolabeled IgG solution as described above.
Radiolabel measurements were performed in a double blind study at BioMolecular Assays (Woburn, Mass.). IgG binding values per microwell were converted to ng/cm^2 values using a surface area of 0.94 cm^2 for a 0.1 mL volume.

For data set [2], the system named is HRP-Goat A'Mouse IgG. Briefly: Enzymatic determination of protein binding to coated medium binding polystyrene plate. The following applies: coated medium binding PS; versus uncoated high binding polystyrene plate; absorbance 405 nm. The procedure: The surfactants were coated onto a medium binding polystyrene plate (Corning Costar No. 2587) as described in Material and Methods. A medium binding polystyrene plate (Corning Costar No. 2587) and a high binding polystyrene plate (Corning Costar No. 2581) were used as controls.
(a) HRP-Goat A'Mouse IgG: Kirkegaard & Perry Laboratories, Inc. Catalog No. 074-1806. Stock solution: 0.5 mg/ml; working concentration: 0.04 μg/ml. The working concentration was obtained by adding 11 μl of the stock solution per 25 mls of PBS pH 7.4 to produce a work stock (WS), and then diluting 1:6 (i.e., 10 mls WS+50 mls PBS pH 7.4).
(1) 100 μl-well of HRP-Goat A'Mouse IgG at a concentration of 0.04 μg/ml were added to the test wells and incubated for 1 hour at room temperature.
(2) The wells were then washed 5 times with the 1M wash solution. Each wash include a 5 minute soak followed by decanting.
(3) 100 μl/well of substrate (30 mls ABTS+30 mls H2O2) were added to the test wells and incubated for 15 minutes at room temperature in the dark.
(4) 100 μl/well of stopping solution (1% SDS) were added to the test wells.
(5) The plates were then shaken and read at 405 nm.
(6) Reduction in binding was determined by comparing the absorbance measured in step (5) with the absorbance measured for a high binding polystyrene plate which had not been treated with a non-ionic surfactant but otherwise subjected to steps (1) to (5).

For data set [3], the system named is Horse IgG. The data set is described as follows: Protein binding by colloidal gold staining, coated medium binding polystyrene plates. Conditions: coated medium binding PS; IgG 10 μg/ml, pH 9.4. The procedure: Except where indicated, the non-ionic surfactants were applied to the hydrophobic surfaces being tested as a 0.1% (weight/volume) solution in isopropanol. A sufficient amount of coating solution was used to cover the surface being testing with a thin layer of the solution (e.g., 25 μl of the solution per well for a standard 24-well plate). In some cases, the solution was applied to surface by spraying; in others, it was poured onto the surface (into the well). Except where indicated, coated samples were either dried at 70° C. for 30 minutes in an air circulated oven or dried at room temperature overnight to evaporate the isopropanol.
Protein binding was determined in some examples using a colloidal gold straining procedure. In accordance with this procedure, colloidal gold becomes electrostatically attached to bound protein and is detected by measuring absorbance at 550 nanometers. Bio-Rad Laboratories' Colloidal Gold Total Protein Stain was used for this purpose, with absorbance being measured with a Cambridge Technologies Plate Reader (No. 7520).
The surfactants were coated onto medium binding polystyrene plates (Corning Costar No. 2587) as described in Material and Methods.
The plates were incubated with IgG as follows: 0.1 ml of Horse IgG (Pierce Labs) at a working concentration of 10 μg/ml in 0.10M NaHCO3 buffer (pH9.4) were added to each well, incubated 30 minutes on a rocker table, and rinsed with dI H2O. The plates were gold stained overnight (0.3 ml/well), rinsed in dI H2O, air dried, and absorbance was measured at 550 nm.

Data set [4] concerns BSA protein (Bovine Serum Albumin, Fraction V). Briefly: BSA binding to coated polystyrene 24-well plates at different pH, colloidal gold stain. The following applies: for Absorbance (550 nm) pH = 9.2: BSA 10 μg/ml in 0.10 M NaHCO3 buffer; for Absorbance (550 nm) pH = 7.4: BSA 10 μg/ml in 0.10 M PBS; for Absorbance (550 nm) pH = 4.6: BSA 10 μg/ml in 0.10 M acetate buffer. The procedure:
Polystyrene plates having 24 wells (Corning Costar #9447) were coated as described in Materials and Methods.
BSA protein (Bovine Serum Albumin, Fraction V, Sigma) was prepared at 10 μg/ml in 0.10 M acetate buffer (pH=4.6), in 0.10 M PBS (pH=7.4), and in 0.10 M NaHCO3 buffer (pH=9.2). Wells of each coated plate, along with uncoated controls, were aliquoted 0.50 ml each of the protein solutions. The samples were run in triplicate.
The plates were placed on a rocker table for 30 minutes at 23° C. The protein solutions were then emptied from the plates, and the wells were rinsed three times with dl H2O. Thereafter, 1.0 ml of colloidal gold stain was added to each well (see Materials and Methods). The plates were placed on a rocker table overnight, rinsed three times with dI H2O, and air dried. Absorbance at 550 nm was then read using the Cambridge Technologies Plate Reader.

Data set [5] concerns rat. Conditions: cited from earlier work.
The test system of data set [6] is bound protein. The data set is described as follows: Colloidal gold staining of bound protein after MDCK culture in media containing 5% FBS, visual. Conditions: colloidal gold after cell culture, visual observation. The procedure: The procedures used were as follows. Polystyrene 24-well plates were coated with the non-ionic surfactants listed in Table 5 in accordance with the procedures described in Materials and Methods. Uncoated plates were used as a control. For comparison, plates with a covalently attached acrylamide coating (Corning Costar Catalog #2500) and with a stearic acid coating were also tested. The stearic acid coating was applied in the same manner as the non-ionic surfactants again using a 0.1% (w/v) solution.
The plates were gamma sterilized at 1.5 Mrad and then inoculated with 5.6×10^4 MDCK […] per well in 1 ml of complete media containing 5% FBS (Fetal Bovine Serum). Incubation was carried out at 37° C. in a 5% CO2 atmosphere for two days. The plates were fixed and stained, and cell attachment was noted. Following this, the wells were stained using the colloidal gold technique to detect bound protein. Only visual observations were made.

Data set [7] deals with IgG. The data set is described as follows: IgG/Au staining of coated polystyrene, type of endgroups. As to the method: Except where indicated, the non-ionic surfactants were applied to the hydrophobic surfaces being tested as a 0.1% (weight/volume) solution in isopropanol. A sufficient amount of coating solution was used to cover the surface being testing with a thin layer of the solution (e.g., 25 μl of the solution per well for a standard 24-well plate). In some cases, the solution was applied to surface by spraying; in others, it was poured onto the surface (into the well). Except where indicated, coated samples were either dried at 70° C. for 30 minutes in an air circulated oven or dried at room temperature overnight to evaporate the isopropanol. Protein binding was determined in some examples using a colloidal gold straining procedure. In accordance with this procedure, colloidal gold becomes electrostatically attached to bound protein and is detected by measuring absorbance at 550 nanometers. Bio-Rad Laboratories' Colloidal Gold Total Protein Stain was used for this purpose, with absorbance being measured with a Cambridge Technologies Plate Reader (No. 7520). The non-ionic surfactants listed in Table 6 were tested for their ability to produce a low binding surface using the techniques described in Materials and Methods. Polystyrene was used as the hydrophobic test surface and IgG/Au staining was used as the readout.

For data set [8], the system named is IgG. The data set is described as follows: Coating durability using water washes, IgG binding by colloidal gold. The procedure:
Polystyrene plates having 24 wells (Corning Costar #9447) were coated with these surfactants as described in Materials and Methods. Durability was tested by adding dI H2O to the wells of a test plate (3.0 mls/well), following which the plate was placed on a rocker table. […] The protein solution was incubated with the plate on a rocker table for 30 minutes at 23° C., following which the plate was H2O rinse 3× (3 mls each time). The colloidal gold staining procedure described above was used to reveal bound protein. The staining comprised an overnight incubation on a rocker table at 23° C., a dI H2O rinse, drying at room temperature, and reading at 550 nm.

For data set [9], the system named is MDCK cells. The data set is described as follows: Cytotoxicity of extracts of coated plates. Conditions: media extract of coated plates (37° C., 48 hours), MDCK 72 hours, Gram Crystal Violet. Type of data set: cell-based. The procedure: Cytotoxicity experiments were performed using MDCK cells. The non-ionic surfactants tested were Pluronic L-121, L-122, and P-123; Span 80 and 85; and Brij 30, 72 and 93. These molecules were coated onto 24-well plates (Corning Costar #9447) from 0.1% (w/v) in isopropanol. Untreated polystyrene and normal tissue culture treated polystyrene (Corning Costar #25820) 24-well plates were used as controls. All plates were incubated at 37° C. for 48 hours with 2 ml/well of complete DMEM media containing 10% Fetal Bovine Serum (FBS). This incubation was performed in order to extract any potentially toxic compounds from the coated surface into the cell growth serum. The FBS solutions were then transferred to tissue culture treated polystyrene and each well was inoculated with ≈2×10^4 cells/well of MDCK cells, and then incubated at 37° C. for 72 hours in a 5% CO2 atmosphere. Cells were then stained with Gram Crystal Violet.

Data set [10] relates to BSA. The data set is described as follows: Polymer blends molded into petri dishes, BSA binding by colloidal gold. The following applies: blended at 5% into polypropylene; silver enhancer.
Experimental: Low binding non-ionic surfactant molecules were blended at 5% (except as noted in Table 13) into a base polymer using a twin screw extruder, then injection molded into the shape of 35 mm petri dishes. Proteins tested were BSA and Fetal Bovine Serum (FBS). Protein binding was determined using a colloidal gold staining procedure as described above. In the case of the polypropylene and EVA blends, a silver enhancer was used (Sigma Chem. Co., St, Louis, Mo., Kit #SE-100).
Data set [11] concerns Fetal Bovine Serum (FBS). Briefly: Polymer blends molded into petri dishes, FBS protein binding by colloidal gold. Conditions: blended at 5% into polypropylene; silver enhancer.

Regarding `CCCCCCCCCCCCCCCCCC(=O)OCCOCCOCCOCCOCCOCCOCCOCCO` [PEO(8) STEARATE], in [1], the “Total IgG binding, Non-Sterilized” value was 6 ng/cm^2; the “Total IgG binding, Sterilized” value was found to be 15 ng/cm^2; the “Tight IgG binding, Sterilized” value turned out to be 9 ng/cm^2; the “Tight IgG binding, Non-Sterilized” value came out at 3 ng/cm^2. Besides, in data set [2], the “% Reduction in Protein Binding” value was 99.1%. In data set [3], the “IgG Protein Binding Absorbance (550 nm)” value is 0.00. Further, in [4], the “Absorbance (550 nm) pH = 9.2” value was determined as 0.00, the “Absorbance (550 nm) pH = 7.4” value amounted to 0.00 and the “Absorbance (550 nm) pH = 4.6” value worked out at 0.00. The LD50 in data set [5] is over 31 grams/Kg.
As to `[Cl-].[Na+]` [NaCl, reference compound], the LD50 in [5] (in vivo) was 4 grams/Kg.
For the compound `CCCCCCCCCCCCCCCCOCCOCCO` [PEO(2) CETYL ETHER], in data set [1], the “Total IgG binding, Non-Sterilized” value is 18 ng/cm^2; the “Total IgG binding, Sterilized” value is listed as 54 ng/cm^2; the “Tight IgG binding, Sterilized” value came to 25 ng/cm^2; the “Tight IgG binding, Non-Sterilized” value was determined as 11 ng/cm^2. For the same compound, the “% Reduction in Protein Binding” value in data set [2] is recorded as 99.9%. Further, the “IgG Protein Binding Absorbance (550 nm)” value in data set [3] came to 0.00. For the same compound, in [4], the “Absorbance (550 nm) pH = 9.2” value stood at 0.00, the “Absorbance (550 nm) pH = 7.4” value came to 0.00 and the “Absorbance (550 nm) pH = 4.6” value was 0.00. For the same compound, in data set [6], the “Visual Color Upon Protein Staining” value is given as “None”. The “Bound Protein Absorbance at 550 nm” value in data set [7] came to 0.00.
In the case of SORBITOL TRI-OLEATE, the “Absorbance (550 nm) Initial” value in [8] (coated polystyrene, no water wash) was 0.00. Besides, the “Absorbance (550 nm) 1 Time 1 hr 23° C.” value in [8] (dI H2O wash 1 time, 1 hr, 23° C.) was found to be 0.00. In addition, in data set [8] (dI H2O wash 1 time, 24 hr, 23° C.), the “Absorbance (550 nm) 1 Time 24 hr 23° C.” value came out at 0.00. Besides, the “Absorbance (550 nm) 1 Time 24 hr 37° C.” value in data set [8] (dI H2O wash 1 time, 24 hr, 37° C.) is 0.00. Also, the “Absorbance (550 nm) 1 Time 24 hr 70° C.” value in [8] (dI H2O wash 1 time, 24 hr, 70° C.) was 0.00. The “Absorbance (550 nm) 6 Times 30 min each 23° C.” value in data set [8] (dI H2O wash 6 times, 30 min each, 23° C.) worked out at 0.00. Also, the “cell growth and morphology” value in [9] was “confluent cell growth with normal cell morphology”. In addition, the “Bound Protein Absorbance (550 nm) BSA” value in data set [10] is listed as 0.000. Also, the “Bound Protein Absorbance (550 nm) FBS” value in [11] stood at 0.000.
Regarding `O=[As]O[As]=O` (centres unmarked) [As2O3, reference compound], the LD50 in [5] was 0.02 grams/Kg.
